Assay results from PubChem BioAssay AID1996.
Values after ≈ are worked out from the molar mass of the structure shown.

Settings: buffer; pH 7.4; 200.0 µM

| SMILES | solubility kinetic [µg/mL] |
| --- | --- |
| CCC1Oc2ccccc2N(CC(=O)NCC2CCCO2)C1=O (configuration not stated) | 44.5 (≈ 140 µM) |
| Cc1cc(C)c(NC(=O)C2CCCO2)c(C)c1 (configuration not stated) | > 35 |
| CCn1c(CCc2ccccc2)nnc1SCC(N)=O | > 43.6 |
| Cc1ccc2nc(Br)c3c(c2c1)OC(CBr)C3 (configuration not stated) | 9.7 (≈ 27.2 µM) |
| O=C(Nc1ccc(Cl)cn1)c1cccc2ccccc12 | 1.3 (≈ 4.6 µM) |
| COc1ccc(N(C)S(=O)(=O)c2cccc(C(=O)OCC(=O)c3c(N)n(C)c(=O)n(C)c3=O)c2)cc1 | 3.2 (≈ 6.2 µM) |
| O=C(CCCCl)NC(=S)Nc1ccc(N2CCOCC2)cc1 | 11.4 (≈ 33.3 µM) |
| O=C(Cc1ccc(F)cc1)N1CCOCC1 | > 33.5 |
| O=C1CNC(=O)N1c1ccc(Cl)cc1 | > 31.6 |
| Cc1ccc(S(=O)(=O)NCC(=O)NC2CC2)cc1 | > 40.2 |
| CCCCSCCCNC(=O)Nc1ccc(CC)cc1 | 3.6 (≈ 12.2 µM) |
| O=C(O)C1CCCCC1C(=O)NCc1ccccn1 (configuration not stated) | > 39.3 |
| COc1ccc(NC(=O)c2c(N)no[n+]2[O-])c(OC)c1 | 1.5 (≈ 5.35 µM) |
| CC(=O)C1=C(O)C(=O)N(Cc2ccccc2)C1c1cccc([N+](=O)[O-])c1 (configuration not stated) | > 52.9 |
| Cc1cc(C(=O)NCC2CCCCC2)ccc1[N+](=O)[O-] | 2.3 (≈ 8.32 µM) |
| Cc1ccc2cc(C)c(N3CCN(c4ccc(F)cc4)CC3)nc2c1 | < 0.2 |
| CC(C)CN1C(=O)c2ccc(NC(=O)C3CC3)cc2C1=O | 0.5 (≈ 1.75 µM) |
| CCCOc1ccc(/C=C/C(=O)NC2CCCCC2)cc1OC | < 0.7 |
| CSc1nc(C)nc(C2CC2)c1C#N | 1.2 (≈ 5.85 µM) |
| Oc1ccc(NC(=S)Nc2ccc(F)cc2)cc1 | 33.2 (≈ 127 µM) |
| COc1ccccc1-n1cnc2sc(C)c(C)c2c1=O | 15.1 (≈ 52.7 µM) |
| Cc1cc(C)c2nc(NCc3ccccc3O)sc2c1 | < 0.3 |

| SMILES | solubility kinetic [µg/mL] |
| --- | --- |
| CCN(CC(=O)NCc1ccc(F)cc1)C(=O)C1CC1C (configuration not stated) | > 43.9 |
| CC(=O)Nc1ccc(-c2csc(Nc3ccccn3)n2)cc1 | 0.5 (≈ 1.61 µM) |
| O=C(c1cc2cc(Cl)ccc2[nH]1)N1CCc2ccccc2C1 | 0.9 (≈ 2.9 µM) |
| O=C(COC(=O)C1CCC(=O)N1)Nc1ccccc1OC(F)F (configuration not stated) | > 49.2 |
| CC(NC(=O)C(=O)NCCc1c[nH]c2ccccc12)c1ccccc1 (configuration not stated) | < 0.2 |
| O=C(NCC1CCCCC1)c1ccc(=O)[nH]c1 | > 35.1 |
| CCCC(=O)Nc1cc(C(F)(F)F)ccc1N1CCOCC1 | 44.6 (≈ 141 µM) |
| C=CCOc1cccc(/C=C/c2nc3ccccc3c(=O)[nH]2)c1 | > 45.7 |
| NC(=O)c1ccc(NC(=O)COC(=O)CCN2C(=O)c3ccccc3C2=O)cc1 | > 59.3 |
| CCOC(=O)c1cc(C(C)(C)C)n(CCCN2CCOCC2)c1C | 47.5 (≈ 141 µM) |
| COc1ccccc1C1CCN(Cc2ccc(Cl)cc2Cl)CC1 | < 0.8 |
| O=C(O)COc1ccccc1-c1nc(-c2ccccc2)c(-c2ccccc2)[nH]1 | 46.1 (≈ 124 µM) |
| CCOC(=O)C1=C(C)NC(C)=C(C(=O)OCC)C1C(=O)OCC(=O)NCc1ccccc1OC | > 71.2 |
| O=C(Nc1ccccc1Br)c1cccc2ccccc12 | < 0.7 |
| CN1C(=S)SC(/[N+]([O-])=C/c2ccc(Cl)cc2)C1(C)C (configuration not stated) | 15.7 (≈ 49.9 µM) |
| Cc1ccc(S(=O)(=O)CC(=O)Nc2nc3ccccc3s2)cc1 | 1.3 (≈ 3.75 µM) |
| CCOC(=O)C1CCN(CCC(=O)Nc2ccc(C)cc2)CC1 | > 47.8 |
| O=S(=O)(NCC1CCCO1)c1ccccc1 (configuration not stated) | > 36.2 |
| Cc1cc(NC(=O)CSc2c[nH]c3ccccc23)no1 | > 43.1 |
| OCc1nc2ccc(Cl)cc2[nH]1 | > 27.4 |
| COc1ccc(C(=O)Cn2cc[n+](C)c2)cc1.[Br-] | > 46.7 |
| N/C(=N\OC(=O)c1ccc(F)cc1)c1cccc([N+](=O)[O-])c1 | 2.3 (≈ 7.58 µM) |

| SMILES | solubility kinetic [µg/mL] |
| --- | --- |
| CC1CCCCC1NC(=S)NC(=O)c1ccccc1Cl (configuration not stated) | 1.6 (≈ 5.15 µM) |
| Nc1ccc(C2(c3ccc(N)cc3)CCCCC2)cc1 | 36 (≈ 135 µM) |
| CC1CN(CC(=O)Nc2ccc(Br)cn2)CC(C)O1 (configuration not stated) | > 49.2 |
| CN(C)NC(=S)NC1CC2CCC1C2 (configuration not stated) | > 32 |
| O=C(O)CCCC(=O)Nc1cccc([N+](=O)[O-])c1 | > 37.8 |
| COC(=O)/C(=C\C=C\c1ccccc1)NC(=O)c1ccccc1 | 6.3 (≈ 20.5 µM) |
| CC(=O)N1CCN(C(=O)CNC(=O)c2cccs2)CC1 | > 44.3 |
| CCN(CC)c1ccc(/C=C2\C(=O)NC(=S)N(c3ccc(OC)cc3OC)C2=O)o1 | 56 (≈ 130 µM) |
| O=C(COC(=O)CC1CCCC1)Nc1ccc(Cl)cn1 | 9.1 (≈ 30.7 µM) |
| COc1ccc(CC(=O)OCC(=O)NC2CCCC(C)C2C)cc1OC (configuration not stated) | > 54.5 |
| C#CCN1C(=O)S/C(=C\c2cc3c(cc2OC)OCO3)C1=O | 1.1 (≈ 3.47 µM) |
| COc1ccc(NC(=O)/C=C/C(=O)O)c([N+](=O)[O-])c1 | > 39.9 |
| C=CCOc1nc2c(c(=O)n(C)c(=O)n2C)n1Cc1ccccc1 | 8.2 (≈ 25.1 µM) |
| CC(C)N1C(=O)C(=O)N(CC(=O)N(C)c2ccccc2)C1=O | > 45.5 |
| CC(NC(=O)c1ccco1)C12CC3CC(CC(C3)C1)C2 (configuration not stated) | > 41 |
| O=C(NCC(c1cccs1)N1CCOCC1)c1cccnc1 (configuration not stated) | 43.6 (≈ 137 µM) |
| Cc1csc(NC(=O)CN2C(=O)c3ccccc3C2=O)c1C(N)=O | 13 (≈ 37.9 µM) |
| O=C(NCC1CCCO1)c1ccc(Br)s1 (configuration not stated) | 42.4 (≈ 146 µM) |
| CC(C)Oc1nc(-c2ccccc2Cl)nc2ccccc12 | 0.4 (≈ 1.34 µM) |
| Cc1nc(N=C(N)N)nc2c(C)cccc12 | 29.8 (≈ 138 µM) |
| N#Cc1ccccc1NC(=S)NC(=O)c1cccs1 | 30.7 (≈ 107 µM) |
| Oc1c(Cl)cc(Cl)cc1CNc1ccccn1 | 3.1 (≈ 11.5 µM) |

| SMILES | solubility kinetic [µg/mL] |
| --- | --- |
| O=C(CN1CCS(=O)(=O)CC1)NNC(=O)C1CCCCC1 | > 47.6 |
| O=C1CCCN1CCCNS(=O)(=O)c1ccccc1 | > 42.4 |
| CC(=O)c1c(C)[nH]c(C(=O)OCC(=O)N(Cc2ccccc2)C(C)(C)C)c1C | 12 (≈ 31.2 µM) |
| Cc1ccc2nc(-c3ccc(O)c(O)c3)cn2c1.Cl | 22.7 |
| CC(=O)Nc1ccc(S(=O)(=O)NC2CC3CCC2C3)cc1 (configuration not stated) | > 46.3 |
| O=Cc1c(NCc2cccc(F)c2)c2ccccc2[nH]c1=O | 19.8 (≈ 66.8 µM) |
| Cc1sc2nc(COC(=O)c3ccc(O)cc3)[nH]c(=O)c2c1C | 8 (≈ 24.2 µM) |
| O=C(c1ccc(Oc2cc(Cl)cc(Cl)c2)o1)N1CCCCC1 | 7.7 (≈ 22.6 µM) |
| CC1=NN(c2nc3ccccc3[nH]2)C(=O)/C1=C/N(C)C | > 40.4 |
| CC(=O)NC(C)Cc1cn(Cc2ccccc2)c2ccccc12 (configuration not stated) | > 46 |
| CN1C(=O)c2ccc(NC(=O)c3cccc4ccccc34)cc2C1=O | 0.8 (≈ 2.42 µM) |
| O=C(Cn1c(=O)oc2ccccc21)NCC1COc2ccccc2O1 (configuration not stated) | > 51.1 |
| O=C(c1cc(-c2ccc(O)cc2)on1)N1CCOCC1 | > 41.1 |
| COc1ccc(C(O)Cn2cc([N+](=O)[O-])nc2C)cc1 (configuration not stated) | 39 (≈ 141 µM) |
| CC(C)c1ccc(OCC(=O)NCc2ccccc2)cc1 | 3.2 (≈ 11.3 µM) |
| Cc1c(C(=O)N2CCC2)oc2ccc(Cl)cc12 | 15.6 (≈ 62.5 µM) |
| Cc1cc(=O)[nH]c(SCC(=O)NCCC2=CCCCC2)n1 | 38.8 (≈ 126 µM) |
| Cc1ccc(S(=O)(=O)c2c(C)cc(C)[nH]c2=O)c(C)c1 | > 43.7 |
| COc1ccc2nccnc2c1[N+](=O)[O-] | > 30.8 |
| O=C(O)C1Cc2[nH]cnc2C(c2cccc([N+](=O)[O-])c2)N1 (configuration not stated) | 43.1 (≈ 150 µM) |
| Cc1ccc(-c2cc(C(=O)NC3CCCC3)no2)cc1 | 0.5 (≈ 1.85 µM) |
